Values quoted from earlier work, collected in patent US10730918B2, “Trap 63” (STRAUMANN HOLDING AG, priority 2013, dated 2020).

B1: full length amelogenin: full length amelogenin, major constituent of the enamel matrix (protein, UniProt Q99217 1-191, looked up)
chain: MGTWILFACLLGAAFAMPLPPHPGHPGYINFSYEVLTPLKWYQSIRPPYPSYGYEPMGGWLHHQIIPVLSQQHPPTHTLQPHHHIPVVPAQQPVIPQQPMMPVPGQHSMTPIQHHQPNLPPPAQQPYQPQPVQPQPHQPMQPQPPVHPMQPLPPQPPLPPMFPMQPLPPMLPDLTLEAWPSTDKTKREEVD
modifications: full-length
notes: full length amelogenin, major constituent of the enamel matrix

System: cementoblasts
Conditions: Boabaid et al 2004

Row | Molecule | effect on cell proliferation | number of cementoblasts in cell culture
1 | LRAP: leucine-rich amelogenin polypeptide; SEQ ID NO: 4 identical to sequence in Boabaid et al 2004 (MPLPPHPGHPGYINFSYEVLTPLKWYQNMIRHPSLLPDLPLEAWPATDKTKREEVD; sus scrofa domesticus) | not to have any effect | decreased
2 | B1 | no reported effect | –
